Laboratory results from patent publication US20060020029A1, “Pharmaceutical compositions from ethnobotanicals” (priority 2004, published 2006).
In brackets after ≈: the same amount, converted by molar mass. Several values for one entry are separate records, joined by “and”; a condition that tells them apart may be missing. Identical values can stand only once.

Experiments:
RSV-Long = experiment: Time of addition, CPE assay; format: cell-based, respiratory syncytial virus; details: for EC50, time of addition: Hep-2; for EC50: estimated FW-516
Experimental: Determine the Time of Addition for EB Fractions. […] This activity is related to the life cycle of the virus and the step in the cycle where the compounds act. In this example, experiments were performed to investigate the effect of the time of addition of EB fractionated products on anti-RSV activity.
Mechanism of action studies were performed as follows. Mechanism of action studies were performed using CJ4-16-4 in a CPE assay with Hep-2 cells.

RSV-A6 57754 = experiment: CPE assay, RSV-A6 57754 in Hep-2 cells
Experimental: (§3) The cell line was propagated in MEM supplemented with 10% heat-inactivated fetal bovine serum (FBS) containing 100 μg/ml of antibiotics (streptomycin/penicillin). […] The overnight medium (MEM containing 10% FBS) was removed, and wells were rinsed twice with 1× phosphate buffer saline (PBS, 200 μl) before adding 10×TCID50 of RSV suspension in fresh medium (MEM plus 2% FBS) to each well, except for cell only wells. […] CellTiter 96 Aqueous Non-Radioactive Cell Proliferation Assay (Promega) was used to monitor the antiviral activity following the manufacturer's instruction. After incubation, the cells were rinsed twice with 200 μl of 1×PBS prior to the addition of 100 μl of fresh medium (MEM plus 10% FBS). […] The extent of cell viability was measured at 490 nm using an ELISA reader, and the absorbance was used to calculate percent inhibition. Antiviral activity of each EB fraction or ribavirin is expressed as IC50, which represents the concentration of the test substance required to reduce the virus infection (as measured by the destruction of the host cells) by 50%.
(§4) Hep-2 cells were used in the CPE assay to determine anti-RSV properties.

[1] = Stability in increasing concentrations of water (HPLC); format: physicochemical; details: for Area % of 3,5-DCQA (HPLC): Table 24 (in H2O)
Experimental: The rate of degradation of 3,5-DCQA was again tested in increasing concentrations of water. 5.4 mg 3,5-DCQA was dissolved in 0.266ml DMSO (conc.=20.3 mg/ml), and then diluted with water to ½, ¼ and ⅛ dilution, respectively. All samples were subjected on HPLC in 0 Day, 1 Day, 2 Day and 4 Day, and Area % of 3,5-DCQA was calculated.

RSV (Long strain) = experiment: CPE assay, RSV-Long in Hep-2 cells; format: cell-based, respiratory syncytial virus; details: Hep-2 cells, CPE assay; for EC50: μM using the estimated FW-516
RSV A2 = experiment: Cotton rat RSV infection model, pulmonary titer; details: for RSV Pulmonary Titer Mean ± SD / RSV Pulmonary Titer in individual CR (A-D): harvest day 4
Experimental: All groups consisted of four randomly selected cotton rats. All test materials were administered intraperitoneally with once daily dosing. The placebo group was administered distilled water at volumes and schedules identical to the other groups receiving investigational test articles. In general, timing of administration of ribavarin to the ribavarin-treated group paralleled that of the other treatment groups except that initiation of dosing was on Day 1 for Experiments 1 and 2 and Day 0 for Experiment 3. The dose of ribavarin was 90 mg/kg/day in Experiments 1 and 3 and 180 mg/kg/day in Experiment 2. All animals were inoculated intranasally with approximately 100 median cotton rat infectious doses (CRID50) of RSV A2 on Day 0. Experiments were terminated on either Day 3 or 4 post-infection. […] On the day that the experiment was terminated, all CRs were sacrificed using CO2 to asphyxiate the animals. The lungs from the animals were subsequently removed. The lungs of sacrificed animals were removed, rinsed in sterile phosphate-buffered saline (PBS; pH 7.2) and weighed. Each set of lungs was then transpleurally lavaged using 3 ml of 2% FCS-MEM media. The resulting lung fractions were kept on ice until they were assayed for RSV. The lung fractions of animals from each group were tested for the levels of RSV present.

RSV-A2 = experiment: CPE assay, RSV-A2 in Hep-2 cells
Experimental: as §3, §4

[2] = tested on: RSV-Long (Cotton Rat adapted strain); experiment: CPE assay, RSV-Long cotton rat adapted strain; format: cell-based, respiratory syncytial virus
[3] = tested on: Herpes simplex virus type 1 (MacIntyre strain); experiment: CPE assay, HSV-1 specificity; format: cell-based
Experimental: (§1) To determine whether the fractions are specific RSV inhibitors rather than general antiviral agents, the inventors tested them against influenza type A/Shangdong/09/93 (H3N2), herpes simplex type 1 (MacItyre), and herpes simplex type 2 (MS) using the CPE assay system.
(§2) CJ4-16-4 was tested using influenza type A, herpes simplex virus type 1, and herpes simplex virus type 2 using the CPE assay with MDCK or Vero cells.

MDCK cells = experiment: Cytotoxicity in MDCK cells
[4] = Stability in DMSO / water (HPLC); format: physicochemical
Experimental: Next, the stability of 3,5-DCQA was evaluated in various concentrations of DMSO. 5.2 mg 3,5-DCQA was dissolved in 0.208 ml DMSO (conc.=25 mg/ml), and then diluted with water as 40% DMSO in water solution, 20% DMSO in water solution, and 10% DMSO in water solution, respectively. All samples were subjected on HPLC in 0 Day, 1 Day, 2 Day and 4 Day, and the Area % of 3,5-DCQA was calculated.
In the presence of water, 3,5-DCQA was converted into 4,5-dicaffeoylquinic acid (4,5-DCQA), as observed using HPLC. HPLC analysis of 3,5-DCQA in DMSO and H2O (conc.=2.5 mg/ml) at 0 day, 2 Day and 4 Day indicated a progressive degradation of 3,5-DCQA. By the forth day in 10% DMSO in H2OP, over 11% of 3,5-DCQA was changed into 4,5-DCQA.

RSV B = experiment: CPE assay, RSV-B in Hep-2 cells; format: cell-based, respiratory syncytial virus
[5] = tested on: Herpes simplex virus type 2 (MS-strain); experiment: CPE assay, HSV-2 specificity; format: cell-based
Experimental: as §1, §2

[6] = tested on: Influenza A-Shangdong/09/93 (H3N2); experiment: CPE assay, influenza A specificity; format: cell-based, influenza type A
Experimental: as §1, §2

[7] = 12.5 mg/kg/day B.I.D i.p. D0-D3, 50% DMSO
[8] = 25 mg/kg/day B.I.D i.p. D0-D3, 50% DMSO
[9] = CPE assay with MDCK or Vero cells

For `O=C(/C=C/c1ccc(O)c(O)c1)OC1CC(O)(C(=O)O)CC(OC(=O)/C=C/c2ccc(O)c(O)c2)C1O` (stereo not drawn) [CJ4-16-4, 3,5-di-O-caffeoylquinic acid], the “EC50, time of addition” value (RSV-Long; 0-Hr-Post-infection) was 0.051 µg/mL, the EC50 (RSV-Long; 0-Hr-Post-infection) was 99 nM and the “EC50, time of addition” value (RSV-Long; 2-Hr-Post-infection) was 0.036 µg/mL. The EC50 (RSV-Long; 2-Hr-Post-infection) was 70 nM, the “EC50, time of addition” value (RSV-Long; 4-Hr-Post-infection) was 0.039 µg/mL and the EC50 (RSV-Long; 4-Hr-Post-infection) was 76 nM. For the same compound, the “EC50, time of addition” value (RSV-Long; 6-Hr-Post-infection) was 0.043 µg/mL, the EC50 (RSV-Long; 6-Hr-Post-infection) was 83 nM and the “EC50, time of addition” value (RSV-Long; 8-Hr-Post-infection) was 0.039 µg/mL. For the same compound, the EC50 (RSV-Long; 8-Hr-Post-infection) was 76 nM, the “EC50, time of addition” value (RSV-Long; 24-Hr-Post-infection) was 0.069 µg/mL and the EC50 (RSV-Long; 24-Hr-Post-infection) was 130 nM. For the same compound, the “EC50, RSV-A6 57754” value (RSV-A6 57754; Hep-2 cells, CPE assay) was 0.08 µg/mL (≈ 0.155 µM), the EC50 (RSV-A6 57754; read-out: EC50, RSV-A6 57754, μM using the estimated FW-516) was 0.16 µM and the “Area % of 3,5-DCQA (HPLC)” value ([1]; Stock (20.3 mg/ml), 0 Day) was 97.05 Area %. The “Area % of 3,5-DCQA (HPLC)” value ([1]; Stock (20.3 mg/ml), 1 Day) was 96.09 Area %, the “Area % of 3,5-DCQA (HPLC)” value ([1]; Stock (20.3 mg/ml), 2 Day) was 93.94 Area % and the “Area % of 3,5-DCQA (HPLC)” value ([1]; Stock (20.3 mg/ml), 4 Day) was 91.90 Area %. For the same compound, the “Area % of 3,5-DCQA (HPLC)” value ([1]; ¼ dilution with water, 1 Day) was 92.79 Area %, the “Area % of 3,5-DCQA (HPLC)” value ([1]; ¼ dilution with water, 2 Day) was 91.06 Area % and the “Area % of 3,5-DCQA (HPLC)” value ([1]; ¼ dilution with water, 4 Day) was 88.14 Area %. For the same compound, the “Area % of 3,5-DCQA (HPLC)” value ([1]; ½ dilution with water, 1 Day) was 94.62 Area %, the “Area % of 3,5-DCQA (HPLC)” value ([1]; ½ dilution with water, 2 Day) was 92.71 Area % and the “Area % of 3,5-DCQA (HPLC)” value ([1]; ½ dilution with water, 4 Day) was 90.20 Area %. The “Area % of 3,5-DCQA (HPLC)” value ([1]; ⅛ dilution with water, 0 Day) was 96.91 Area %, the “Area % of 3,5-DCQA (HPLC)” value ([1]; ⅛ dilution with water, 1 Day) was 92.60 Area % and the “Area % of 3,5-DCQA (HPLC)” value ([1]; ⅛ dilution with water, 2 Day) was 89.02 Area %. The “Area % of 3,5-DCQA (HPLC)” value ([1]; ⅛ dilution with water, 4 Day) was 85.55 Area %, the “3,5-DCQA changed into 4,5-DCQA” value ([1]; fourth day in solution) was “over 11%” and the “EC50, RSV-Long” value (RSV (Long strain)) was 0.035 µg/mL (≈ 0.0678 µM). For the same compound, the EC50 (RSV (Long strain)) was 0.068 µM, the EC50 (RSV (Long strain); listed as 3,5 dicaffeoyl-quinic acid) was about 0.068 µM and the EC50 (RSV (Long strain); listed as IV) was 0.068 µM. The “inhibition of RSV infection in cotton rat model” value (RSV A2; 12.5 mg/kg/day) was “over one log”, the “RSV Pulmonary Titer Mean ± SD” value (RSV A2; [7]) was 3.3 ± 0.0 log10/g lung and the “RSV Pulmonary Titer in individual CR (A-D)” value (RSV A2; [7]) was 3.3 log10/g lung. For the same compound, the Reduction (RSV A2; 12.5 mg/kg/day B.I.D i.p. D0-D3, vs placebo) was 1.1 Log 10, the “RSV Pulmonary Titer Mean ± SD” value (RSV A2; [8]) was 3.2 ± 0.3 log10/g lung and the “RSV Pulmonary Titer in individual CR (A-D)” value (RSV A2; [8]) was 2.8 log10/g lung and 3.3 log10/g lung (3×). The Reduction (RSV A2; 25 mg/kg/day B.I.D i.p. D0-D3, vs placebo) was 1.2 Log 10, the “EC50, RSV-A2” value (RSV-A2; Hep-2 cells, CPE assay) was 0.084 µg/mL (≈ 0.163 µM) and the EC50 (RSV-A2; read-out: EC50, RSV-A2, μM using the estimated FW-516) was 0.163 µM. The “EC50, RSV-Long (Cotton Rat adapted strain)” value ([2]; Hep-2 cells, CPE assay) was 1.4 µg/mL (≈ 2.71 µM), the EC50 ([2]; μM using the estimated FW-516) was 2.7 µM and the “activity against HSV-1 (in words)” value [3] was “inactive”. For the same compound, the “EC50, Herpes simplex virus type 1 (MacIntyre strain)” value [3, 9] was over 50 µg/mL, the EC50 ([3]; μM using the estimated FW-516) was over 100 µM and the “CC50, MDCK” value (MDCK cells; isolated compounds) was over 200 µg/mL. The CC50 (MDCK cells; read-out: CC50, MDCK, μM using the estimated FW-516) was over 400 µM, the CC50 (Vero cells) was over 400000 nM and the “CC50, Vero” value (Vero cells) was over 200 µg/mL. For the same compound, the “3,5-DCQA changed into 4,5-DCQA” value ([4]; 10% DMSO in H2O (2.5 mg/ml), fourth day) was “over 11%”, the “Area % of 3,5-DCQA (HPLC)” value ([4]; 10% DMSO in H2O, 0 Day) was 97.25 Area % and the “Area % of 3,5-DCQA (HPLC)” value ([4]; 10% DMSO in H2O, 1 Day) was 93.60 Area %. The “Area % of 3,5-DCQA (HPLC)” value ([4]; 10% DMSO in H2O, 2 Day) was 89.50 Area %, the “Area % of 3,5-DCQA (HPLC)” value ([4]; 10% DMSO in H2O, 4 Day) was 86.01 Area % and the “Area % of 3,5-DCQA (HPLC)” value ([4]; 20% DMSO in H2O, 1 Day) was 94.56 Area %. For the same compound, the “Area % of 3,5-DCQA (HPLC)” value ([4]; 20% DMSO in H2O, 2 Day) was 91.91 Area %, the “Area % of 3,5-DCQA (HPLC)” value ([4]; 20% DMSO in H2O, 4 Day) was 89.08 Area % and the “Area % of 3,5-DCQA (HPLC)” value ([4]; 40% DMSO in H2O, 1 Day) was 96.33 Area %. The “Area % of 3,5-DCQA (HPLC)” value ([4]; 40% DMSO in H2O, 2 Day) was 94.72 Area %, the “Area % of 3,5-DCQA (HPLC)” value ([4]; 40% DMSO in H2O, 4 Day) was 93.90 Area % and the “Area % of 3,5-DCQA (HPLC)” value ([4]; 100% DMSO (25 mg/ml), 0 Day) was 97.28 Area %. For the same compound, the “Area % of 3,5-DCQA (HPLC)” value ([4]; 100% DMSO (25 mg/ml), 1 Day) was 97.34 Area %, the “Area % of 3,5-DCQA (HPLC)” value ([4]; 100% DMSO (25 mg/ml), 2 Day) was 97.15 Area % and the “Area % of 3,5-DCQA (HPLC)” value ([4]; 100% DMSO (25 mg/ml), 4 Day) was 97.09 Area %. For the same compound, the “degradation in 100% DMSO (in words)” value ([4]; 100% DMSO, up to 4 Day) was “No statistically significant degradation”, the CC50 (Hep-2 cells) was over 400000 nM and the “CC50, Hep 2” value (Hep-2 cells) was over 200 µg/mL. The “cytotoxicity in Hep-2 cells (in words)” value (Hep-2 cells) was “no significant cytotoxicity”, the “EC50, RSV-B (Washington)” value (RSV B; Hep-2 cells, CPE assay) was 0.086 µg/mL (≈ 0.167 µM) and the EC50 (RSV B; μM using the estimated FW-516, read-out: EC50, RSV-B (Washington)) was 0.167 µM. For the same compound, the “activity against HSV-2 (in words)” value [5] was “inactive”, the “EC50, Herpes simplex virus type 2 (MS-strain)” value [5, 9] was over 50 µg/mL and the EC50 ([5]; μM using the estimated FW-516) was over 100 µM. For the same compound, the “activity against Influenza A (in words)” value [6] was “inactive”, the “EC50, Influenza A-Shangdong/09/93 (H3N2)” value [6, 9] was over 50 µg/mL and the EC50 ([6]; μM using the estimated FW-516) was over 100 µM.
